From US20250170130A1, “MODULATORS OF MYC FAMILY PROTO-ONCOGENE PROTEIN” (Nalo Therapeutics, priority 2022, published 2025)
Like-named read-outs stand apart in the source and are kept apart here.

Key:
[1] = biological target: T1, MycC (Homo sapiens, UniProt P01106); test: Degradation of MycC protein in L363 cells, JESS/Western blot of lysates; assay type: cell-based; conditions: L-363, 24 h; for Dmax at 1 µM: read-out: % Degradation of MycC (L-363) 24 h, 1 μM; for Dmax at 3 µM: read-out: % Degradation of MycC (L-363) 24 h, 3 μM; for Dmax at 6 µM: read-out: % Degradation of MycC (L-363) 24 h, 6 μM; for Dmax at 0.5 µM: read-out: % Degradation of MycC (L-363) 24 h, 0.5 μM
T1 construct: endogenous in cells; host or cells: L363
Procedure, shortened: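 L363 suspension cells were seeded at 1E6 cells per well and exposed to compound (stock 10 mM in DMSO) for 24 hrs. Cells were collected, spun down, rinsed with PBS, lysed in RIPA buffer cocktail on ice, clarified and kept at −80 degrees. Lysate protein was quantified by BCA, and c-myc was measured on JESS by chemiluminescence with tubulin and GAPDH loading controls in the NIR channel.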

[2] = biological target: T2, MycN (Homo sapiens, UniProt P04198); test: Degradation of MycN protein in SK-N-BE(2) cells, JESS/Western blot of lysates; assay type: cell-based; conditions: SKNBE2, 24 h; for Dmax at 0.5 µM: read-out: % Degradation of MycN (SKNBE2) 24 h, 0.5 μM; for Dmax at 1 µM: read-out: % Degradation of MycN (SKNBE2) 24 h, 1 μM; for Dmax at 3 µM: read-out: % Degradation of MycN (SKNBE2) 24 h, 3 μM; for Dmax at 6 µM: read-out: % Degradation of MycN (SKNBE2) 24 h, 6 μM
T2 construct: endogenous in cells; host or cells: SK-N-BE(2)
T2 sequence (P04198 1-464): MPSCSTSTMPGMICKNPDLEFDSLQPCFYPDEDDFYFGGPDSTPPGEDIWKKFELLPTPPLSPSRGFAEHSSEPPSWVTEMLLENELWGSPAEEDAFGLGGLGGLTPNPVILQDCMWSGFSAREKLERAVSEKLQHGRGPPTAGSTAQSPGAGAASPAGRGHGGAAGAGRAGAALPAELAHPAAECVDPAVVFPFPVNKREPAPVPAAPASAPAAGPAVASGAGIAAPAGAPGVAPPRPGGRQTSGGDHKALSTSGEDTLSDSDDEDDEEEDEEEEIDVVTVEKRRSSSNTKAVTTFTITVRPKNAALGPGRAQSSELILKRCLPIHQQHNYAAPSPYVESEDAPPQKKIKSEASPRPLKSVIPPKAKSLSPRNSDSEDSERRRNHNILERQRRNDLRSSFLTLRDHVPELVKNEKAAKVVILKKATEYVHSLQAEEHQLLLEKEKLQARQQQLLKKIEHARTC
Procedure, shortened: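 SK-N-BE(2) adherent cells (5E5 per well of a 6 well dish) were grown 24 hrs, then exposed to compounds diluted 1 in 20 in media, with DMSO controls, for 24 hrs. Cells were scraped, pelleted, PBS washed and lysed in RIPA buffer cocktail; after BCA protein quantitation, n-myc was detected by chemiluminescence on JESS/Western blot with tubulin and GAPDH loading controls read in the near infra red channel.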

T1 sequence (P01106 whole entry): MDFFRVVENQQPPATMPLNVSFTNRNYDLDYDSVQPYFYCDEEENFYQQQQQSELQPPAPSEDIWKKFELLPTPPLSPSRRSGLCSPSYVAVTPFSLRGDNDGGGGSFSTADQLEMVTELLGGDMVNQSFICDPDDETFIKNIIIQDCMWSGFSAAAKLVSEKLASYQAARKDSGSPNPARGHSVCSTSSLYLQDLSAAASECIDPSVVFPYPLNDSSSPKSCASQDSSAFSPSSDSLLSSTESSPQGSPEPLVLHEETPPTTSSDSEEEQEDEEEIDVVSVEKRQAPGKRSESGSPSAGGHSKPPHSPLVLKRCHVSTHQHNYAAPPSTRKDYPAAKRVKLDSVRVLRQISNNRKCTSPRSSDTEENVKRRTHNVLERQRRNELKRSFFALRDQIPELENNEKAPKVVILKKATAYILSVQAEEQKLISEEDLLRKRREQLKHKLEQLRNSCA

SMILES	Dmax at 1 µM ([1]; L-363 cells, 24 h, 1 μM)	Dmax at 3 µM ([1]; L-363 cells, 24 h, 3 μM)	Dmax at 6 µM ([1]; L-363 cells, 24 h, 6 μM)	Dmax at 0.5 µM ([2]; SKNBE2 cells, 24 h, 0.5 μM)	Dmax at 1 µM ([2]; SKNBE2 cells, 24 h, 1 μM)	Dmax at 3 µM ([2]; SKNBE2 cells, 24 h, 3 μM)	Dmax at 6 µM ([2]; SKNBE2 cells, 24 h, 6 μM)	Dmax at 0.5 µM ([1]; L-363 cells, 24 h, 0.5 μM)	Dmax at 0.5 µM [1]	Dmax at 1 µM [1]	Dmax at 3 µM [1]	Dmax at 6 µM [1]	Dmax at 0.5 µM [2]	Dmax at 1 µM [2]	Dmax at 3 µM [2]	Dmax at 6 µM [2]
CN(C)CCCN(C)c1nccc(Nc2cc(C3CC3)[nH]n2)n1 [Compound 48, N^4-(5-cyclopropyl-1H-pyrazol-3-yl)-N^2-[3-(dimethylamino)propyl]-N^2-methyl-pyrimidine-2,4-diamine]	20 to 49%	< 20%	20 to 49%	< 20%	< 20%	< 20%	< 20%	–	–	–	–	–	–	–	–	–
c1cc(Nc2cc(C3CC3)[nH]n2)nc(N2C[C@H]3CN[C@H]3C2)n1 [Compound 53, N-(5-Cyclopropyl-1H-pyrazol-3-yl)-2-[(1R,5R)-3,6-diazabicyclo[3.2.0]heptan-3-yl]pyrimidin-4-amine]	–	20 to 49%	< 20%	–	–	–	< 20%	–	–	–	–	–	–	–	–	–
c1cc(Nc2cc(C3CC3)[nH]n2)nc(N2CC(C3CNC3)C2)n1 [Compound 64, 2-[3-(Azetidin-3-yl)azetidin-1-yl]-N-(5-cyclopropyl-1H-pyrazol-3-yl)pyrimidin-4-amine]	< 20%	20 to 49%	20 to 49%	< 20%	–	< 20%	20 to 49%	–	–	–	–	–	–	–	–	–
CN1CC(C2CN(c3nccc(Nc4cc(C5CCCC5)[nH]n4)n3)C2)C1 [Compound 65, N-(5-Cyclopentyl-1H-pyrazol-3-yl)-2-[3-(1-methylazetidin-3-yl)azetidin-1-yl]pyrimidin-4-amine]	< 20%	< 20%	50 to 79%	< 20%	< 20%	20 to 49%	50 to 79%	< 20%	–	–	–	–	–	–	–	–
NCC12CC(C1)N(c1nccc(Nc3cc(C4CCCC4)[nH]n3)n1)C2 [Compound 66, 2-[4-(aminomethyl)-2-azabicyclo[2.1.1]hexan-2-yl]-N-(5-cyclopentyl-1H-pyrazol-3-yl)pyrimidin-4-amine]	–	80 to 100%	80 to 100%	–	80 to 100%	80 to 100%	80 to 100%	< 20%	–	–	–	–	–	–	–	–
COCCNCC12CC(C1)N(c1nccc(Nc3cc(C4CCCC4)[nH]n3)n1)C2 [Compound 67, N-(5-Cyclopentyl-1H-pyrazol-3-yl)-2-[4-[(2-methoxyethylamino)methyl]-2-azabicyclo[2.1.1]hexan-2-yl]pyrimidin-4-amine]	–	–	–	–	–	–	–	–	< 20%	< 20%	80 to 100%	80 to 100%	< 20%	50 to 79%	80 to 100%	80 to 100%
CS(=O)(=O)CCNCC12CC(C1)N(c1nccc(Nc3cc(C4CCCC4)[nH]n3)n1)C2 [Compound 68, N-(5-Cyclopentyl-1H-pyrazol-3-yl)-2-[4-[(2-methylsulfonylethylamino)methyl]-2-azabicyclo[2.1.1]hexan-2-yl]pyrimidin-4-amine]	< 20%	80 to 100%	80 to 100%	< 20%	< 20%	80 to 100%	80 to 100%	< 20%	–	–	–	–	–	–	–	–
CC1(NCC23CC(C2)N(c2nccc(Nc4cc(C5CCCC5)[nH]n4)n2)C3)COC1 [Compound 69, N-(5-Cyclopentyl-1H-pyrazol-3-yl)-2-[4-[[(3-methyloxetan-3-yl)amino]methyl]-2-azabicyclo[2.1.1]hexan-2-yl]pyrimidin-4-amine]	–	80 to 100%	80 to 100%	20 to 49%	20 to 49%	80 to 100%	80 to 100%	< 20%	–	–	–	–	–	–	–	–
FC(F)(F)CNCC12CC(C1)N(c1nccc(Nc3cc(C4CCCC4)[nH]n3)n1)C2 [Compound 71, N-(5-Cyclopentyl-1H-pyrazol-3-yl)-2-[4-[(2,2,2-trifluoroethylamino)methyl]-2-azabicyclo[2.1.1]hexan-2-yl]pyrimidin-4-amine]	80 to 100%	80 to 100%	80 to 100%	20 to 49%	50 to 79%	80 to 100%	80 to 100%	20 to 49%	–	–	–	–	–	–	–	–
c1cc(Nc2cc(C3CCCC3)[nH]n2)nc(N2CC3(CN4CCOCC4)CC2C3)n1 [Compound 72, N-(5-Cyclopentyl-1H-pyrazol-3-yl)-2-[4-(morpholinomethyl)-2-azabicyclo[2.1.1]hexan-2-yl]pyrimidin-4-amine]	–	–	80 to 100%	20 to 49%	20 to 49%	50 to 79%	80 to 100%	–	–	–	–	–	–	–	–	–
O=S1(=O)CCN(CC23CC(C2)N(c2nccc(Nc4cc(C5CCCC5)[nH]n4)n2)C3)CC1 [Compound 73, N-(5-Cyclopentyl-1H-pyrazol-3-yl)-2-[4-[(1,1-dioxo-1,4-thiazinan-4-yl)methyl]-2-azabicyclo[2.1.1]hexan-2-yl]pyrimidin-4-amine]	–	20 to 49%	80 to 100%	< 20%	20 to 49%	50 to 79%	80 to 100%	–	–	–	–	–	–	–	–	–
c1cc(Nc2cc(C3CCCC3)[nH]n2)nc(N2CC3(CN4CCCC4)CC2C3)n1 [Compound 75, N-(5-Cyclopentyl-1H-pyrazol-3-yl)-2-[4-(pyrrolidin-1-ylmethyl)-2-azabicyclo[2.1.1]hexan-2-yl]pyrimidin-4-amine]	–	–	50 to 79%	20 to 49%	20 to 49%	50 to 79%	80 to 100%	–	–	–	–	–	–	–	–	–
c1cc(Nc2cc(C3CCCC3)[nH]n2)nc(N2CC3(CN4CCC4)CC2C3)n1 [Compound 76, 2-[4-(Azetidin-1-ylmethyl)-2-azabicyclo[2.1.1]hexan-2-yl]-N-(5-cyclopentyl-1H-pyrazol-3-yl)pyrimidin-4-amine]	–	–	–	–	–	–	–	–	–	–	< 20%	80 to 100%	–	< 20%	80 to 100%	80 to 100%
CC(C)NCC12CC(C1)N(c1nccc(Nc3cc(C4CCCC4)[nH]n3)n1)C2 [Compound 78, N-(5-Cyclopentyl-1H-pyrazol-3-yl)-2-[4-[(isopropylamino)methyl]-2-azabicyclo[2.1.1]hexan-2-yl]pyrimidin-4-amine]	–	–	–	–	–	–	–	–	–	< 20%	50 to 79%	80 to 100%	< 20%	20 to 49%	80 to 100%	80 to 100%
